Reference: US20190274300A1, “PRESERVATIVE SOLUTION FOR LIVE CELLS OR COMPOSITION CONTAINING LIVE CELLS” (TERUMO KABUSHIKI KAISHA, priority 2016, published 2019)

System: sheet-shaped human skeletal myoblast cell culture
Assay: Cell survival rate confirmation test: sheet-shaped cell culture kept refrigerated in preservative solution, PI staining, flow cytometry
Format: cell-based
Settings: 2° C. to 8° C.
Procedure: The sheet-shaped cell cultures were prepared using skeletal myoblast cells (with fibroblast cells contained therein) prepared from a human skeletal muscle by a usual or known method. A cell mixture of human skeletal myoblast cells and human fibroblast cells suspended in a 20% human serum-containing DMEM/F12 medium (Thermo Fisher Scientific Inc.) was seeded at 3.7×10^6 cells/well on a temperature-responsive culture dish (UpCell® 12 well Multi-well, CellSeed Inc.), and was then subjected to the sheet-formation cultivation at 37° C. under 5% CO2 for 12 to 26 hours. After the sheet-formation cultivation, the medium was removed, 700 μL of HBSS (+) (Thermo Fisher Scientific Inc.) which was chilled to 4° C. was added, and then the resultant was left to stand for 10 minutes. Then, gentle pipetting was conducted such as to detach the sheet-shaped cell culture completely.
After the sheet-shaped cell culture was completely detached, HBSS (+) was removed, and a fresh supply of room-temperature HBSS (+) was added to conduct rinsing. Such a washing step was repeated four times.
The sheet-shaped cell culture left to stand under the refrigerated conditions in (1) above was put to measurement of cell survival rate. After the sheet-shaped cell culture left to stand in the preservative solution for a predetermined period was dissociated with a trypsin-like protease, the cells were dispensed into a FACS tube to be 3.5×10^5 cells, followed by centrifugation, and the supernatant was discarded. To the resultant was added 3 ml of 0.5% BAS-containing PBS solution, and, after rinsing the cells by vortex, centrifugation was conducted, the supernatant was removed, and 500 μL of a propidium iodide (PI, Becton Dickinson) prepared to a final concentration of 0.6 μg/mL by use of a 0.5% BSA-containing PBS solution was added and mixed. Immediately after the mixing, the mixture was put to reaction at room temperature under a light shielding condition for approximately five minutes. After the reaction, a 0.5% BSA-containing PBS solution was added, the cells were rinsed by vortex, followed by centrifugation, then the supernatant was removed, 500 μL of a 0.5% BSA-containing PBS solution was added, and the resultant was put to an analysis. The analysis was conducted using a flow cytometer (Becton Dickinson), and the proportion of PI-unstained cells contained in the whole cells admixed with PI was measured. […]
As a control, a DMEM medium (Thermo Fisher Scientific Inc.) was used.

## tocopherol [vitamin E]
10 μM vitamin E in physiological saline solution, three days
  cell survival rate: approximately 65%
100 μM vitamin E in physiological saline solution, three days
  cell survival rate: approximately 65%

## O=C1O[C@H]([C@@H](O)CO)C(O)=C1O [vitamin C, ascorbic acid]
0.2 mM vitamin C in physiological saline solution, three days
  cell survival rate: approximately 63%
2 mM vitamin C in physiological saline solution, three days
  cell survival rate: approximately 85%

## CC1=NN(c2ccccc2)C(=O)C1 [edaravone, 3-methyl-1-phenyl-2-pyrazolin-5-one]
1 μM edaravone in physiological saline solution, five days
  cell survival rate: approximately 95%
1 μM or 10 μM edaravone in physiological saline solution, five days
  cell survival rate as compared to the case of no addition of edaravone: increased
10 μM edaravone in physiological saline solution, five days
  cell survival rate: approximately 97%
100 μM edaravone in HBSS (+)
  lowering in the number of live cells from three days to seven days of preservation, compared to edaravone-nonadded HBSS (+): restrained
100 μM edaravone in HBSS (+), three days to seven days
  cell survival rate as compared to HBSS (+) not admixed with edaravone: higher cell survival rate
